In ChEMBL document CHEMBL1201861, “Genomics of Drug Sensitity in Cancer screening data, Wellcome Trust Sanger Institute”:

Key:
Test in all cases: cells
D-423MG = type: functional, cell-based; conditions: Homo sapiens
Description: SANGER: Inhibition of human D-423MG cell growth in a cell viability assay.

D-566MG = type: functional, cell-based; conditions: Homo sapiens
ECC10 = type: functional, cell-based; conditions: Homo sapiens;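 note: growth inhibition of ECC10 cells, read out by a cell viability assay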
Description: SANGER: Inhibition of human ECC10 cell growth in a cell viability assay.

EW-22 = type: functional, cell-based; conditions: Homo sapiens;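 note: growth inhibition of the EW-22 cell line, measured with a cell viability readout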
Description: SANGER: Inhibition of human EW-22 cell growth in a cell viability assay.

H9 = type: functional, cell-based; conditions: Homo sapiens
Description: SANGER: Inhibition of human H9 cell growth in a cell viability assay.

HuO9 = type: functional, cell-based, Homo sapiens; conditions: Homo sapiens, HuO9;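 note: growth inhibition of HuO9 cells, read out with a cell viability assay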
Description: SANGER: Inhibition of human HuO9 cell growth in a cell viability assay.

KNS-62 = type: functional, cell-based; conditions: Homo sapiens;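 note: inhibition of cell growth, read out with a cell viability assay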
Description: SANGER: Inhibition of human KNS-62 cell growth in a cell viability assay.

NBsusSR = type: functional, cell-based; conditions: Homo sapiens;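 note: growth inhibition of the human cell line, read out with a cell viability assay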
Description: SANGER: Inhibition of human NBsusSR cell growth in a cell viability assay.

NCI-H1048 = type: functional, cell-based; conditions: Homo sapiens;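 note: growth inhibition of human NCI-H1048 cells, read out with a cell viability assay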
Description: SANGER: Inhibition of human NCI-H1048 cell growth in a cell viability assay.

NCI-H1666 = type: functional, cell-based; conditions: Homo sapiens;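 note: growth inhibition of the cell line, read out with a cell viability assay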
Description: SANGER: Inhibition of human NCI-H1666 cell growth in a cell viability assay.

NCI-H1703 = type: functional, cell-based, Homo sapiens; conditions: Homo sapiens, NCI-H1703;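 note: growth inhibition of NCI-H1703 cells, read out via a cell viability assay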
Description: SANGER: Inhibition of human NCI-H1703 cell growth in a cell viability assay.

NCI-H2009 = type: functional, cell-based, Homo sapiens; conditions: Homo sapiens, NCI-H2009;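 note: cell viability assay measuring inhibition of NCI-H2009 cell growth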
Description: SANGER: Inhibition of human NCI-H2009 cell growth in a cell viability assay.

NCI-H2029 = type: functional, cell-based; conditions: Homo sapiens;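 note: Read-out is a viability assay on the cultured cells, and IC50 is the concentration that suppresses cell growth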
Description: SANGER: Inhibition of human NCI-H2029 cell growth in a cell viability assay.

NCI-H2291 = type: functional, cell-based; conditions: Homo sapiens
Description: SANGER: Inhibition of human NCI-H2291 cell growth in a cell viability assay.

NCI-H630 = type: functional, cell-based, Homo sapiens; conditions: Homo sapiens, NCI-H630;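 note: growth inhibition of NCI-H630 cells, read out with a cell viability assay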
Description: SANGER: Inhibition of human NCI-H630 cell growth in a cell viability assay.

SJRH30 = type: functional, cell-based; conditions: Homo sapiens;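 note: growth inhibition of human SJRH30 cells, read out with a cell viability assay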
Description: SANGER: Inhibition of human SJRH30 cell growth in a cell viability assay.

SW 1116 = type: functional, cell-based; conditions: Homo sapiens;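 note: growth inhibition of SW1116 cells, read out with a cell viability assay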
Description: SANGER: Inhibition of human SW1116 cell growth in a cell viability assay.

SW900 = type: functional, cell-based; conditions: Homo sapiens;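 note: IC50 is the concentration that inhibits SW900 cell growth, measured by a cell viability assay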
Description: SANGER: Inhibition of human SW900 cell growth in a cell viability assay.

A549 = type: functional, cell-based; conditions: Homo sapiens;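 note: growth inhibition of A549 cells, read out with a cell viability assay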
Description: SANGER: Inhibition of human A549 cell growth in a cell viability assay.

BALL-1 = type: functional, cell-based; conditions: Homo sapiens;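 note: growth inhibition of BALL-1 cells, read out with a cell viability assay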
Description: SANGER: Inhibition of human BALL-1 cell growth in a cell viability assay.

BT-549 = type: functional, cell-based; conditions: Homo sapiens
Description: SANGER: Inhibition of human BT-549 cell growth in a cell viability assay.

TGBC11TKB = type: functional, cell-based; conditions: Homo sapiens;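 note: growth inhibition of human TGBC11TKB cells, measured by a cell viability assay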
Description: SANGER: Inhibition of human TGBC11TKB cell growth in a cell viability assay.

TI-73 = type: functional, cell-based; conditions: Homo sapiens;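 note: cell viability assay measuring how much compounds suppress growth of the cultured cell line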
Description: SANGER: Inhibition of human TI-73 cell growth in a cell viability assay.

Structure (SMILES) | IC50 (D-423MG) [µM] | IC50 (D-566MG) [µM] | IC50 (ECC10) [µM] | IC50 (EW-22) [µM] | IC50 (H9) [µM] | IC50 (HuO9) [µM] | IC50 (KNS-62) [µM] | IC50 (NBsusSR) [µM] | IC50 (NCI-H1048) [µM] | IC50 (NCI-H1666) [µM] | IC50 (NCI-H1703) [µM] | IC50 (NCI-H2009) [µM] | IC50 (NCI-H2029) [µM] | IC50 (NCI-H2291) [µM] | IC50 (NCI-H630) [µM] | IC50 (SJRH30) [µM] | IC50 (SW 1116) [µM] | IC50 (SW900) [µM] | IC50 (A549) [µM] | IC50 (BALL-1) [µM] | other results
CN(C)C/C=C/C(=O)Nc1cc2c(Nc3ccc(F)c(Cl)c3)ncnc2cc1O[C@H]1CCOC1 [AFATINIB] | > 0.5 | > 0.5 | > 0.5 | > 0.5 | 0.0713 | > 0.5 | > 0.5 | > 0.5 | > 0.5 | > 0.5 | > 0.5 | > 0.5 | > 0.5 | > 0.5 | > 0.5 | > 0.5 | > 0.5 | > 0.5 | > 0.5 | > 0.5 | IC50 (BT-549): > 0.5 µM; IC50 (TGBC11TKB): > 0.5 µM; IC50 (TI-73): 0.147 µM
O=C(NOCC1CC1)c1ccc(F)c(F)c1Nc1ccc(I)cc1Cl [CI-1040] | 3.08 | 6.54 | 8.03 | > 10 | 0.0228 | > 10 | 2.51 | 5.57 | > 10 | 6.08 | > 10 | > 10 | > 10 | 1.33 | > 10 | > 10 | 1.56 | > 10 | 1.2 | > 10 | IC50 (BT-549): > 10 µM; IC50 (TGBC11TKB): > 10 µM; IC50 (TI-73): > 10 µM
Nc1ccn([C@@H]2O[C@H](CO)[C@@H](O)[C@@H]2O)c(=O)n1 [CYTARABINE] | 0.299 | 0.269 | > 2 | 0.668 | 0.391 | > 2 | > 2 | 0.335 | 0.389 | 1.58 | 0.0498 | > 2 | > 2 | > 2 | > 2 | 0.683 | > 2 | 1.62 | 0.0497 | > 2 | IC50 (BT-549): 0.531 µM; IC50 (TGBC11TKB): 1.73 µM; IC50 (TI-73): 0.613 µM
C=CCNC1=C2C[C@@H](C)C[C@H](OC)[C@H](O)[C@@H](C)/C=C(\C)[C@H](OC(N)=O)[C@@H](OC)/C=C\C=C(/C)C(=O)NC(=CC1=O)C2=O [TANESPIMYCIN] | > 1 | 0.0039 | > 1 | > 1 | 0.0437 | 0.0759 | 0.321 | 0.373 | 0.29 | 0.128 | 0.414 | 0.853 | > 1 | 0.479 | > 1 | > 1 | > 1 | > 1 | < 0.00391 | > 1 | IC50 (BT-549): 0.118 µM; IC50 (TGBC11TKB): 0.109 µM; IC50 (TI-73): 0.018 µM
